# In patent US5236927A, “Anti-cancer quinazoline derivatives” (National Research Development Corporation, priority 1985, dated 1993):
# Key:
# [1] = test system: L1210/C15 cells; experiment: L1210/C15 cell culture growth inhibition (overproduces TS 45-fold); type: cell-based
# Procedure: Cell counts after 48 hours of incubation were obtained by Coulter counting.
# [2] = test system: L1210 cells; experiment: L1210 cell culture growth inhibition; type: cell-based; settings: Mus musculus, 48 hours, read-out: L1210 ID50
# Procedure: Cells in the log phase of growth were diluted to about 5×10^4 /ml and duplicate 5ml aliquots were added to 50 ml tissue culture flasks containing the appropriate additions (diluted in RPMI and sterilised by Millipore filtration). Cell counts after 48 hours of incubation were obtained by Coulter counting.
# [3] = test system: de novo thymidylate synthesis in L1210 cells; experiment: Incorporation of 3H dUrd into acid-precipitable material in L1210 cells; type: cell-based
# Procedure: L1210 cells were used at a concentration of 10^5 /ml. Incubation at 37° C. was in complete RPMI tissue culture medium plus or minus drugs for the lengths of time indicated on the graphs. After this time ^3 H dUrd was added at a concentration of 2 uCi/ml (about 0.2 uM). Three 1 ml aliquots were removed after 20 minutes, placed on ice and mixed with 1 ml of ice-cold phosphate buffered saline (PBS). Precipitation onto glass-fibre discs was performed by trichloroacetic acid washing followed by PBS. […] This is an indirect measurement of de novo thymidylate synthesis in whole cells. […] These concentrations are 10 times the ID50 values.
# [4] = target: T1, Thymidylate synthetase (TS) (Mus musculus, UniProt P07607); experiment: Thymidylate synthetase (TS) inhibition, 3H release assay; type: biochemical; settings: for TS IRP (inverse relative potency, I50 test compound/I50 CB3717): relative to CB3717
# T1 construct: A 50,000 g supernatant was prepared from a TS over-producing (45-fold) L1210 cell line; endogenous in cells; host or cells: L1210 (TS over-producing subline, 45-fold), 50,000 g supernatant
# T1 sequence (P07607 whole entry): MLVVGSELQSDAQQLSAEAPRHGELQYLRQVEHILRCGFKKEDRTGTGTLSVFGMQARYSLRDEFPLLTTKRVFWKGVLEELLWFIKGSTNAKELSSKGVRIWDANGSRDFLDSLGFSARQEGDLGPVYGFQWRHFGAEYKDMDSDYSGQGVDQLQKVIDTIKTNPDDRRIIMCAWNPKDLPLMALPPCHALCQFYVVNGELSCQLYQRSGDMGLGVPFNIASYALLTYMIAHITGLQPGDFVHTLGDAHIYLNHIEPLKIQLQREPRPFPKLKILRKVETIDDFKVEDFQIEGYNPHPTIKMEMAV
# Procedure: Each compound was dissolved in 0.15M NaHCO3. Thymidylate synthetase was assayed by a ^3 H release method. A 50,000 g supernatant was prepared from a TS over-producing (45-fold) L1210 cell line that was developed in this Institute. The preparation buffer was 0.05M potassium phosphate/0.01M 2-mercaptoethanol, pH 7.4. […] The reaction mixture contained a total of 25 umoles of phosphate. Incubation time was for 1 hour at 37° C.
# The results are tabulated below (Table 5). The I50 was defined as the inhibitor concentration necessary to reduce the activity of TS by 50%.
SMILES,IC50 [2] [µM],"TS IRP (inverse relative potency, I50 test compound/I50 CB3717) [4]",also measured
"Cc1c(CNc2ccc(C(=O)N[C@@H](CCC(=O)O)C(=O)O)cc2)ccc2nc(N)nc(N)c12 [CB3703, 5CH35,8-dideazaaminopterin]",–,–,resistance of L1210/C15 cells [1]: not resistant
"Nc1nc2ccc(CNc3ccc(C(=O)N[C@@H](CCC(=O)O)C(=O)O)cc3)cc2c(=O)[nH]1 [CB3705, 5,8-dideazafolic acid]",5,–,3H dUrd incorporation ([3]; 10 times the ID50 concentration): did not produce rapid suppression; 3H dUrd incorporation ([3]; over 2 hours at the ID50 concentration (5 uM)): did not significantly effect
"C#CCN(Cc1ccc2nc[nH]c(=O)c2c1)c1ccc(C(=O)N[C@@H](CCC(=O)O)C(=O)O)s1 [CB3866, N-(5-(N-((3,4-dihydro-4-oxo-6-quinazolinyl)methyl)prop-2-ynylamino)thien-2-oyl)-L-glutamic acid]",–,85,"IC50 ([4]; TS from TS over-producing L1210 line, 200 uM (±)-L-5,10-CH2FH4, 1 hour at 37° C, read-out: TS I50): 1.7 µM"
CN(Cc1cnc2nc(N)nc(N)c2n1)c1ccc(C(=O)N[C@@H](CCC(=O)O)C(=O)O)cc1 [methotrexate],–,–,resistance of L1210/C15 cells [1]: not resistant

# Further lines, with some results ahead:
IC50 [2] [µM],"TS IRP (inverse relative potency, I50 test compound/I50 CB3717) [4]",SMILES,also measured
0.7,1136,"O=C(O)CC[C@H](NC(=O)c1ccc(NCc2ccc3nc[nH]c(=O)c3c2)cc1)C(=O)O [CB3816, N-(4-(((3,4-dihydro-4-oxo-6-quinazolinyl)methyl)amino)benzoyl)-L-glutamic acid]",–
2.6,26,"CCN(Cc1ccc2nc[nH]c(=O)c2c1)c1ccc(C(=O)N[C@@H](CCC(=O)O)C(=O)O)cc1 [CB3822, N-(4-(N-((3,4-dihydro-4-oxo-6-quinazolinyl)methyl)ethylamino)benzoyl)-L-glutamic acid]",–
1.1,53,"CN(Cc1ccc2nc[nH]c(=O)c2c1)c1ccc(C(=O)N[C@@H](CCC(=O)O)C(=O)O)cc1 [CB3824, N-(4-(N-((3,4-dihydro-4-oxo-6-quinazolinyl)methyl)methylamino)benzoyl)-L-glutamic acid]",–
1.7,56,"C=CCN(Cc1ccc2nc[nH]c(=O)c2c1)c1ccc(C(=O)N[C@@H](CCC(=O)O)C(=O)O)cc1 [CB3826, N-(4-(N-((3,4-dihydro-4-oxo-6-quinazolinyl)methyl)prop-2-enylamino)benzoyl)-L-glutamic acid]",–
